Test results published in US12458020B2, “Synergistic herbicidal mixtures and compositions comprising triclopyr and phosphate ester adjuvants” (SBM Développement SAS, priority 2019, dated 2025).

Assays:
[1] = tested on: brush (e.g., poison ivy, poison oak, black berries, etc.); assay: Field trial of residual control of brush, rated as bare ground (Example 3); assay type: in vivo; details: triclopyr alone at 0.275, 0.55 and 0.8% ai/v
Procedure: The objective of the trial was to determine the effects of concentration and adjuvant on triclopyr and its residual control of brush. The trial was conducted in a recreational setting at a golf course. Plots were 1×1 meters and the treatments comprised BioAdvanced Brush Killer Plus® (8.8% triclopyr) mixed to 0.275% ai/v with various adjuvants treated at 0.1% ai/v (i.e., % weight of the active ingredient per volume) (Table 3), Controls included an untreated check group and triclopyr alone at three concentrations (0.275, 0.55, and 0.8% ai/v). All treatments and controls were repeated in triplicate (i.e., three plots per group). The plots were treated at the standard rate of 2 gal of mixed product per 1000 square feet. The plots were rated for the percent of brush (e.g., poison ivy, poison oak, black berries, etc.) in each plot. […] The observations were based upon the amount of clear area (without vegetation) in each plot.

[2] = tested on: English ivy (Hedera helix); assay: Field trial of triclopyr plus phosphate ester adjuvants on English ivy plots (Example 2); assay type: in vivo; details: triclopyr by itself, 0.55% w/v; single application
Procedure: The objective of the trial was to measure the effects of adjuvants in the same class of chemistry in the control of the evasive weed species English ivy (Hedera helix). The trial was conducted in a recreational setting at a golf course. Plots were 2×2 meters and the treatments consisted of triclopyr in the form of BioAdvanced Brush Killer Plus® 8.8% triclopyr mixed to a 0.55% w/v concentration for all the treatments, and various adjuvants treated at 0.5% ai/v (i.e., % w/v of the active ingredient) (Table 2). Controls included an untreated check group. All treatments and controls were repeated in triplicate (i.e., three plots per group). The plots were treated at the standard rate of 2 gal of mixed product per 1000 square feet. The plots were rated for the percent English Ivy in each plot. […] Trial was observed over time for the presence of English ivy in each plot.

O=C(O)COc1nc(Cl)c(Cl)cc1Cl [triclopyr, 3,5,6-Trichloro-2-pyridinyloxyacetic acid]
residual efficacy on brush as a function of triclopyr concentration [1]: the higher the concentration of the triclopyr the longer the residual efficacy | control of the English ivy [2]: about 53%
